# Measurements: ChEMBL document CHEMBL5620379, “Discovery, SAR and mechanistic studies of quinazolinone-based acetamide derivatives in experimental visceral leishmaniasis” (Eur J Med Chem, 2023)
# Assays:
# J774 [1] = assay: Cytotoxicity against mouse J774 cells at 12.5 uM incubated for 72 hrs by MTT assay relative to control; assay type: toxicity, cell-based; conditions: j774, 72 h
# J774 [2] = assay: Cytotoxicity against mouse J774 cells at 25 uM incubated for 72 hrs by MTT assay relative to control; assay type: toxicity, cell-based; conditions: j774, 72 h
# J774 [3] = assay: Cytotoxicity against mouse J774 cells at 50 uM incubated for 72 hrs by MTT assay relative to control; assay type: toxicity, cell-based; conditions: j774, 72 h
# Leishmania donovani [4] = assay: Antileishmanial activity against Leishmania donovani promastigotes measured after 48 hrs by MTT assay; assay type: functional, organism-based
# Leishmania donovani [5] = assay: Antileishmanial activity against Leishmania donovani amastigotes infected in J774 macrophage assessed as inhibition of parasite growth incubated for 48 hrs by luciferase assay; assay type: functional, organism-based; conditions: J774, 48 h
# J774 [6] = assay: Cytotoxicity against mouse J774 macrophage incubated for 72 hrs by MTT assay; assay type: functional
# [7] = Selectivity index, ratio of CC50 for mouse J774 macrophage to IC50 for Leishmania donovani amastigotes infected in J774 macrophage; assay type: toxicity; conditions: J774 macrophages, read-out: Ratio CC50/IC50
# Leishmania donovani [8] = assay: Antileishmanial activity against amastigote form of Leishmania donovani infected in BALB/c mouse assessed as inhibition of parasite growth in liver at 20 mg/kg, po measured after 1 week post treatment by geimsa staining based analysis relative to control; assay type: functional; parameters: scale not given: the % may be the effect or the level left; conditions: time 1 weeks
# Leishmania donovani [9] = assay: Antileishmanial activity against amastigote form of Leishmania donovani infected in BALB/c mouse assessed as inhibition of parasite growth in spleen at 20 mg/kg, po measured after 1 week post treatment by geimsa staining based analysis relative to control; assay type: functional; parameters: scale not given: the % may be the effect or the level left; conditions: time 1 weeks
# Leishmania donovani [10] = assay: Antileishmanial activity against Leishmania donovani infected in golden hamster assessed as elimination of organ parasite burden at 30 mg/kg, po administered for 7 days and measured after 28 days by giemsa staining based analysis relative to control; assay type: functional; conditions: time 28 day
# [11] = Toxicity in golden hamster infected with Leishmania donovani assessed as reduction in serum AST level at 30 mg/kg ,po and measured after 28 days post infection (reference value: 82.72 IU/L); assay type: organism-based, Mesocricetus auratus; conditions: in vivo, 672 h, time 28 day
# [12] = Toxicity in golden hamster infected with Leishmania donovani assessed as reduction in serum ALT level at 30 mg/kg ,po and measured after 28 days post infection (reference value: 81.58 IU/L); assay type: organism-based, Mesocricetus auratus; conditions: in vivo, 672 h, time 28 day
# [13] = Renal toxicity in golden hamster assessed as effect on creatinine level at 30 mg/kg, po measured after 28 days post infection; assay type: organism-based, Mesocricetus auratus; conditions: in vivo, 672 h, time 28 day
# [14] = Renal toxicity in golden hamster assessed as effect on urea level at 30 mg/kg, po measured after 28 days post infection; assay type: organism-based, Mesocricetus auratus; conditions: in vivo, 672 h, time 28 day
# Leishmania donovani [15] = assay: Antileishmanial activity against Leishmania donovani promastigotes at 25 uM measured after 48 hrs by MTT assay relative to control; assay type: functional
# Leishmania donovani [16] = assay: Antileishmanial activity against Leishmania donovani amastigotes infected in J774 macrophage assessed as inhibition of parasite growth at 25 uM incubated for 48 hrs by luciferase assay relative to control; assay type: functional; parameters: scale not given: the % may be the effect or the level left
# [17] = Stability of the compound in stimulated gastric fluid at 10 ug/ml at pH 1.2 measured upto 120 min by HPLC analysis; assay type: ADME; conditions: simulated gastric fluid, at 10 µg/mL, read-out: Stability
# [18] = Stability of the compound in stimulated intestinal fluid at 10 ug/ml at pH 6.8 measured after 120 min by HPLC analysis; assay type: ADME; conditions: simulated intestinal fluid, at 10 µg/mL, read-out: Stability
# [19] = Stability of the compound in Tris-buffer at 10 ug/ml at pH 7.4 measured upto 120 min by HPLC analysis; assay type: physicochemical; conditions: at 10 µg/mL, read-out: Stability
# Leishmania donovani [20] = assay: Antileishmanial activity against amastigote form of Leishmania donovani infected in BALB/c mouse assessed as inhibition of parasite growth in liver at 10 mg/kg, po measured after 1 week post treatment by geimsa staining based analysis relative to control; assay type: functional; parameters: scale not given: the % may be the effect or the level left; conditions: time 1 weeks
# Leishmania donovani [21] = assay: Antileishmanial activity against amastigote form of Leishmania donovani infected in BALB/c mouse assessed as inhibition of parasite growth in spleen at 10 mg/kg, po measured after 1 week post treatment by geimsa staining based analysis relative to control; assay type: functional; parameters: scale not given: the % may be the effect or the level left; conditions: time 1 weeks
# Leishmania donovani [22] = assay: Antileishmanial activity against amastigote form of Leishmania donovani infected in BALB/c mouse assessed as inhibition of parasite growth in liver at 40 mg/kg, po measured after 1 week post treatment by geimsa staining based analysis relative to control; assay type: functional; parameters: scale not given: the % may be the effect or the level left; conditions: time 1 weeks
# Leishmania donovani [23] = assay: Antileishmanial activity against amastigote form of Leishmania donovani infected in BALB/c mouse assessed as inhibition of parasite growth in spleen at 40 mg/kg, po measured after 1 week post treatment by geimsa staining based analysis relative to control; assay type: functional; parameters: scale not given: the % may be the effect or the level left; conditions: time 1 weeks
# [24] = Toxicity in BALB/c mouse assessed as effect on body weight at 10 to 40 mg/kg, po measured after 1 week; assay type: organism-based; conditions: in vivo, 168 h, dose 10-40 mg/kg, time 1 weeks
# [25] = Toxicity in BALB/c mouse assessed as effect on skin texture at 10 to 40 mg/kg, po measured after 1 week; assay type: organism-based; conditions: in vivo, 168 h, dose 10-40 mg/kg, time 1 weeks
# Splenocyte [26] = assay: Immunostimulatory activity in mouse splenocyte assessed as fold increase in IL-12 synthesis at 10 to 40 mg/kg measured after 1 week by RT-PCR analysis; assay type: functional; conditions: dose 10-40 mg/kg; time 1 weeks
# Splenocyte [27] = assay: Immunostimulatory activity in mouse splenocyte assessed as decrease in IL-10 secretion at 10 to 40 mg/kg measured after 1 week by RT-PCR analysis relative to control; assay type: functional; parameters: scale not given: the % may be the effect or the level left; conditions: dose 10-40 mg/kg, time 1 weeks
# Leishmania donovani [28] = assay: Antileishmanial activity against Leishmania donovani infected in golden hamster assessed as inhibition of parasite growth in liver at 40 mg/kg, po administered for 7 days and measured after 28 days by giemsa staining based analysis relative to control; assay type: functional; parameters: scale not given: the % may be the effect or the level left; conditions: time 28 day
# Leishmania donovani [29] = assay: Antileishmanial activity against Leishmania donovani infected in golden hamster assessed as inhibition of parasite growth in spleen at 40 mg/kg, po administered for 7 days and measured after 28 days by giemsa staining based analysis relative to control; assay type: functional; parameters: scale not given: the % may be the effect or the level left; conditions: time 28 day
# Leishmania donovani [30] = assay: Antileishmanial activity against Leishmania donovani infected in golden hamster assessed as inhibition of parasite growth in liver at 80 mg/kg, po administered for 7 days and measured after 28 days by giemsa staining based analysis relative to control; assay type: functional; parameters: scale not given: the % may be the effect or the level left; conditions: time 28 day
# Leishmania donovani [31] = assay: Antileishmanial activity against Leishmania donovani infected in golden hamster assessed as inhibition of parasite growth in spleen at 80 mg/kg, po administered for 7 days and measured after 28 days by giemsa staining based analysis relative to control; assay type: functional; parameters: scale not given: the % may be the effect or the level left; conditions: time 28 day
# [32] = Toxicity in golden hamster infected with Leishmania donovani assessed as reduction in serum AST level at 40 mg/kg ,po and measured after 28 days post infection (reference value: 82.72 IU/L); assay type: organism-based, Mesocricetus auratus; conditions: in vivo, 672 h, time 28 day
# [33] = Toxicity in golden hamster infected with Leishmania donovani assessed as reduction in serum ALT level at 40 mg/kg ,po and measured after 28 days post infection (reference value: 81.58 IU/L); assay type: organism-based, Mesocricetus auratus; conditions: in vivo, 672 h, time 28 day
# [34] = Renal toxicity in golden hamster assessed as effect on creatinine level at 40 mg/kg, po measured after 28 days post infection; assay type: organism-based, Mesocricetus auratus; conditions: in vivo, 672 h, time 28 day
# [35] = Renal toxicity in golden hamster assessed as effect on urea level at 40 mg/kg, po measured after 28 days post infection; assay type: organism-based, Mesocricetus auratus; conditions: in vivo, 672 h, time 28 day
smiles,measurement,setting,value
CCCCCCCCCCCCCCCCOP(=O)([O-])OCC[N+](C)(C)C [MILTEFOSINE],Activity,J774 [1],85.44%
same,Activity,J774 [2],76.74%
same,Activity,J774 [3],53.21%
same,IC50,Leishmania donovani [4],6.91 µM
same,IC50,Leishmania donovani [5],11 µM
same,CC50,J774 [6],68 µM
same,selectivity ratio,[7],6.21
same,Activity,Leishmania donovani [8],97.23%
same,Activity,Leishmania donovani [9],98.51%
same,Activity,Leishmania donovani [10],100%
same,Activity,[11],25 IU/L
same,Activity,[12],20 IU/L
same,Activity,[13],Non-Toxic
same,Activity,[14],Non-Toxic
CCn1c(-c2ccc(OCC(=O)Nc3ccccc3)cc2)nc2ccccc2c1=O,Activity,J774 [1],84.82%
same,Activity,J774 [2],77.94%
same,Activity,J774 [3],42.29%
same,IC50,Leishmania donovani [4],5.76 µM
same,IC50,Leishmania donovani [5],6.02 µM
same,CC50,J774 [6],72.9 µM
same,selectivity ratio,[7],12.1
same,Activity,Leishmania donovani [15],84.61%
same,Activity,Leishmania donovani [16],80.66%
same,"remaining at 2 h, 10 ug/ml",[17],88.8%
same,"remaining at 2 h, 10 ug/ml",[18],89.6%
same,"remaining at 2 h, 10 ug/ml",[19],91.6%
same,Activity,Leishmania donovani [20],29.8%
same,Activity,Leishmania donovani [8],54.4%
same,Activity,Leishmania donovani [21],28.1%
same,Activity,Leishmania donovani [9],53.3%
same,Activity,Leishmania donovani [22],77.3%
same,Activity,Leishmania donovani [23],74.1%
same,Activity,[24],Non-Toxic
same,Activity,[25],Non-Toxic
same,fold change (FC),Splenocyte [26],2.03
same,Activity,Splenocyte [27],23.68%
same,Activity,Leishmania donovani [28],46.1%
same,Activity,Leishmania donovani [29],53.9%
same,Activity,Leishmania donovani [30],77.1%
same,Activity,Leishmania donovani [31],75.7%
same,Activity,[32],119.82 IU/L
same,Activity,[33],100.8 IU/L
same,Activity,[34],Non-Toxic
same,Activity,[35],Non-Toxic
